The assay has as its target recombinant, human, C-terminally-His tagged NAMPT (Homo sapiens, UniProt P43490). Put plainly: Time-Resolved Fluorescence Resonance Energy Transfer (TR-FRET) binding assay of NAMPT. The following applies: 6.8 nM NAMPT, 200 nM probe (Oregon Green 488-conjugated APO866), 1 nM Tb-anti-His antibody, 2-3 hours. The procedure:
Determination of the utility of compounds having Formula (I) as binders to and inhibitors of NAMPT was performed using a Time-Resolved Fluorescence Resonance Energy Transfer (TR-FRET) binding assay.
Time-Resolved Fluorescence Resonance Energy Transfer (TR-FRET) Binding Assay of NAMPT
The assay was carried out in 18 uL low volume plates (Owens Corning) in reaction buffer (50 mM HEPES (NaOH), pH 7.5, 100 mM NaCl, 10 mM MgCl2, 1 mM DTT, 1% Glycerol) using 6.8 nM recombinant, human, C-terminally-His tagged NAMPT, 1 nM Tb-anti-His antibody (Invitrogen, Cat # PV5895), and 200 nM probe (Oregon Green 488-conjugated APO866; A-1251667.0). Plates were covered, and reactions were carried out for 2-3 hours. Plates were read with Envision (Laser Lantha low volume protocol) after 2 to 3 hours. Excitation was carried out at 337 nm, and the ratio of emission of Oregon Green (520 nm) to terbium (492 nm) was determined and used to calculate IC50 values of test compounds.
For orientation: TR-FRET usually uses a lanthanide donor and a delayed reading to cut background.

Chain of recombinant, human, C-terminally-His tagged NAMPT (P43490 whole entry): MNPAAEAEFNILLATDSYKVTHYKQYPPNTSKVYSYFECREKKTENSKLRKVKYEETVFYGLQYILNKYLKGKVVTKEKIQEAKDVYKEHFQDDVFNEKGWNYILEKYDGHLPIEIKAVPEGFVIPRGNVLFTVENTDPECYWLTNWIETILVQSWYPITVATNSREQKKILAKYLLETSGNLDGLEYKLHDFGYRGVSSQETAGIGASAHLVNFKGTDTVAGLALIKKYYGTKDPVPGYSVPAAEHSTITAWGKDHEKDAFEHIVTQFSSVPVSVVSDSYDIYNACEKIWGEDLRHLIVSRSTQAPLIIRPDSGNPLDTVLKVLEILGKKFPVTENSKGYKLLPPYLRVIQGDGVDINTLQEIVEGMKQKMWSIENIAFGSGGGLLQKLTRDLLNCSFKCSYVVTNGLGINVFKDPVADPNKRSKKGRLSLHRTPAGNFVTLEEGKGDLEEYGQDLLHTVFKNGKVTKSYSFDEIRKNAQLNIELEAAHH

For orientation: IC50 means the concentration that gives 50% inhibition. In the case of `O=C(CCc1cccs1)Nc1ccc(NC(=O)N2CCc3ccccc3C2)cc1` [Example 33, N-(4-{[3-(2-thienyl)propanoyl]amino}phenyl)-3,4-dihydroisoquinoline-2(1H)-carboxamide], the IC50 stood at 40.4 nM.

As to `CC(C)Cn1cc(-c2ccc(NC(=O)N3CCc4ccccc4C3)cc2)cn1` [Example 34, N-[4-(1-isobutyl-1H-pyrazol-4-yl)phenyl]-3,4-dihydroisoquinoline-2(1H)-carboxamide], the 50% inhibitory concentration (IC50) was 38.8 nM.

With `CCCn1cc(-c2ccc(NC(=O)N3CCc4ccccc4C3)cc2)cn1` [Example 35, N-[4-(1-propyl-1H-pyrazol-4-yl)phenyl]-3,4-dihydroisoquinoline-2(1H)-carboxamide], the IC50 was 103 nM.

As for `C[C@@H](O)Cn1cc(-c2ccc(NC(=O)N3CCc4ccccc4C3)cc2)cn1` [Example 36, N-{4-[1-((2R)-2-hydroxypropyl)-1H-pyrazol-4-yl]phenyl}-3,4-dihydroisoquinoline-2(1H)-carboxamide], the concentration for half-maximal inhibition (IC50) was determined as 185 nM.

Consider `CC(C)CCn1cc(-c2ccc(NC(=O)N3CCc4ccccc4C3)cc2)cn1` [Example 37, N-{4-[1-(3-methylbutyl)-1H-pyrazol-4-yl]phenyl}-3,4-dihydroisoquinoline-2(1H)-carboxamide], for which the IC50 was 298 nM.

Turning to `O=C(Nc1ccc(-c2cnn(Cc3ccccc3)c2)cc1)N1CCc2ccccc2C1` [Example 38, N-[4-(1-benzyl-1H-pyrazol-4-yl)phenyl]-3,4-dihydroisoquinoline-2(1H)-carboxamide], the IC50 came to 391 nM.

As to `O=C(Nc1ccc(/C=C/CCCc2ccccc2)cc1)N1CCc2ccccc2C1` [Example 39, N-{4-[(1E)-5-phenylpent-1-en-1-yl]phenyl}-3,4-dihydroisoquinoline-2(1H)-carboxamide], the IC50 is 611 nM.

`CCn1cc(-c2ccc(NC(=O)N3CCc4ccccc4C3)cc2)cn1` [Example 40, N-[4-(1-ethyl-1H-pyrazol-4-yl)phenyl]-3,4-dihydroisoquinoline-2(1H)-carboxamide]: the IC50 stood at 645 nM.

On to `O=C(Nc1ccc(-c2cnn(CCO)c2)cc1)N1CCc2ccccc2C1` [Example 41, N-{4-[1-(2-hydroxyethyl)-1H-pyrazol-4-yl]phenyl}-3,4-dihydroisoquinoline-2(1H)-carboxamide], for which the IC50 turned out to be 819 nM.

As for `Cn1cc(-c2ccc(NC(=O)N3CCc4ccccc4C3)cc2)cn1` [Example 42, N-[4-(1-methyl-1H-pyrazol-4-yl)phenyl]-3,4-dihydroisoquinoline-2(1H)-carboxamide], the IC50 stood at 1290 nM.

As for `O=C(Nc1ccc(C2=CCN(C(=O)c3ccccc3)CC2)cc1)N1CCc2ccccc2C1` [Example 43, N-[4-(1-benzoyl-1,2,3,6-tetrahydropyridin-4-yl)phenyl]-3,4-dihydroisoquinoline-2(1H)-carboxamide], the IC50 is 10.1 nM.

In the case of `CCCC(=O)N1CC=C(c2ccc(NC(=O)N3CCc4ccccc4C3)cc2)CC1` [Example 44, N-[4-(1-butyryl-1,2,3,6-tetrahydropyridin-4-yl)phenyl]-3,4-dihydroisoquinoline-2(1H)-carboxamide], the IC50 worked out at 13.6 nM.

For the compound `CC(C)S(=O)(=O)N1CC=C(c2ccc(NC(=O)N3CCc4ccccc4C3)cc2)CC1` [Example 45, N-{4-[1-(isopropylsulfonyl)-1,2,3,6-tetrahydropyridin-4-yl]phenyl}-3,4-dihydroisoquinoline-2(1H)-carboxamide], the IC50 was 13.8 nM.

In the case of `CC(C)C(=O)N1CC=C(c2ccc(NC(=O)N3CCc4ccccc4C3)cc2)CC1` [Example 46, N-[4-(1-isobutyryl-1,2,3,6-tetrahydropyridin-4-yl)phenyl]-3,4-dihydroisoquinoline-2(1H)-carboxamide], the 50% inhibitory concentration (IC50) came out at 15.3 nM.

Turning to `CC(C)CC(=O)N1CC=C(c2ccc(NC(=O)N3CCc4ccccc4C3)cc2)CC1` [Example 47, N-{4-[1-(3-methylbutanoyl)-1,2,3,6-tetrahydropyridin-4-yl]phenyl}-3,4-dihydroisoquinoline-2(1H)-carboxamide], the IC50 turned out to be 20.2 nM.

Take `CNC(=O)N1CC=C(c2ccc(NC(=O)N3CCc4ccccc4C3)cc2)CC1` [Example 48, N-{4-[1-(methylcarbamoyl)-1,2,3,6-tetrahydropyridin-4-yl]phenyl}-3,4-dihydroisoquinoline-2(1H)-carboxamide]: the IC50 came out at 32.6 nM.

Regarding `CC(C)(C)OC(=O)N1CC=C(c2ccc(NC(=O)N3CCc4ccccc4C3)cc2)CC1` [Example 49, tert-butyl 4-{4-[(3,4-dihydroisoquinolin-2(1H)-ylcarbonyl)amino]phenyl}-3,6-dihydropyridine-1(2H)-carboxylate], the half-inhibitory concentration (IC50) stood at 48.7 nM.

As to `CC(=O)N1CC=C(c2ccc(NC(=O)N3CCc4ccccc4C3)cc2)CC1` [Example 50, N-[4-(1-acetyl-1,2,3,6-tetrahydropyridin-4-yl)phenyl]-3,4-dihydroisoquinoline-2(1H)-carboxamide], the IC50 amounted to 58.6 nM.

Regarding `CC(C)CS(=O)(=O)N1CC=C(c2ccc(NC(=O)N3CCc4ccccc4C3)cc2)CC1` [Example 51, N-{4-[1-(isobutylsulfonyl)-1,2,3,6-tetrahydropyridin-4-yl]phenyl}-3,4-dihydroisoquinoline-2(1H)-carboxamide], the IC50 came out at 74.9 nM.

For the compound `O=C(Nc1ccc(C2=CCN(Cc3ccccc3)CC2)cc1)N1CCc2ccccc2C1` [Example 52, N-[4-(1-benzyl-1,2,3,6-tetrahydropyridin-4-yl)phenyl]-3,4-dihydroisoquinoline-2(1H)-carboxamide], the IC50 stood at 80.5 nM.

Take `CS(=O)(=O)N1CC=C(c2ccc(NC(=O)N3CCc4ccccc4C3)cc2)CC1` [Example 53, N-{4-[1-(methylsulfonyl)-1,2,3,6-tetrahydropyridin-4-yl]phenyl}-3,4-dihydroisoquinoline-2(1H)-carboxamide]: the concentration for half-maximal inhibition (IC50) worked out at 112 nM.

Regarding `O=C(Nc1ccc(C2=CCNCC2)cc1)N1CCc2ccccc2C1` [Example 54, N-[4-(1,2,3,6-tetrahydropyridin-4-yl)phenyl]-3,4-dihydroisoquinoline-2(1H)-carboxamide], the concentration for half-maximal inhibition (IC50) is 289 nM.

As to `CC(C)CCN1CC=C(c2ccc(NC(=O)N3CCc4ccccc4C3)cc2)CC1` [Example 55, N-{4-[1-(3-methylbutyl)-1,2,3,6-tetrahydropyridin-4-yl]phenyl}-3,4-dihydroisoquinoline-2(1H)-carboxamide], the IC50 stood at 435 nM.

In the case of `CCCc1nc(-c2ccc(NC(=O)N3CCc4ccccc4C3)cc2)no1` [Example 56, N-[4-(5-propyl-1,2,4-oxadiazol-3-yl)phenyl]-3,4-dihydroisoquinoline-2(1H)-carboxamide], the IC50 was 189 nM.

As to `O=C(Nc1ccc(-c2noc(Cc3ccccc3)n2)cc1)N1CCc2ccccc2C1` [Example 57, N-[4-(5-benzyl-1,2,4-oxadiazol-3-yl)phenyl]-3,4-dihydroisoquinoline-2(1H)-carboxamide], the IC50 was 887 nM.

In the case of `CC(C)CCc1nc(-c2ccc(NC(=O)N3CCc4ccccc4C3)cc2)no1` [Example 58, N-{4-[5-(3-methylbutyl)-1,2,4-oxadiazol-3-yl]phenyl}-3,4-dihydroisoquinoline-2(1H)-carboxamide], the IC50 stood at 1260 nM.

As for `CCCCCCNC(=O)N1CCc2ccccc2C1` [Example 59, N-hexyl-3,4-dihydroisoquinoline-2(1H)-carboxamide], the 50% inhibitory concentration (IC50) stood at 864 nM.

Take `CCOC(=O)CCCCCNC(=O)N1CCc2ccccc2C1` [Example 60, ethyl 6-[(3,4-dihydroisoquinolin-2(1H)-ylcarbonyl)amino]hexanoate]: the half-maximal inhibitory concentration (IC50) is 1370 nM.

For the compound `O=C(Cc1ccccc1)NCCc1ccc(NC(=O)N2CCc3ccccc3C2)cc1` [Example 61, N-(4-{2-[(phenylacetyl)amino]ethyl}phenyl)-3,4-dihydroisoquinoline-2(1H)-carboxamide], the IC50 was found to be 1250 nM.

`CC(C)C(=O)NCCc1ccc(NC(=O)N2CCc3ccccc3C2)cc1` [Example 62, N-{4-[2-(isobutyrylamino)ethyl]phenyl}-3,4-dihydroisoquinoline-2(1H)-carboxamide]: the concentration for half-maximal inhibition (IC50) was determined as 1470 nM.

For the compound `O=C(COCc1ccccc1)Nc1ccc(NC(=O)N2CCc3ccccc3C2)cc1` [Example 63, N-(4-{[(benzyloxy)acetyl]amino}phenyl)-3,4-dihydroisoquinoline-2(1H)-carboxamide], the IC50 stood at 10.7 nM.

`COC1CCC(C(=O)Nc2ccc(NC(=O)N3CCc4ccccc4C3)cc2)CC1` (centres unmarked) [Example 64, N-(4-{[(4-methoxycyclohexyl)carbonyl]amino}phenyl)-3,4-dihydroisoquinoline-2(1H)-carboxamide]: the concentration for half-maximal inhibition (IC50) was 55 nM.

As to `CC(=O)N1CCC(C(=O)Nc2ccc(NC(=O)N3CCc4ccccc4C3)cc2)CC1` [Example 65, N-(4-{[(1-acetylpiperidin-4-yl)carbonyl]amino}phenyl)-3,4-dihydroisoquinoline-2(1H)-carboxamide], the half-inhibitory concentration (IC50) was 116 nM.

Consider `O=C(CCC(=O)c1cccs1)Nc1ccc(NC(=O)N2CCc3ccccc3C2)cc1` [Example 66, N-(4-{[4-oxo-4-(2-thienyl)butanoyl]amino}phenyl)-3,4-dihydroisoquinoline-2(1H)-carboxamide], for which the IC50 came to 15.3 nM.

On to `O=C(CCS(=O)(=O)c1ccccc1)Nc1ccc(NC(=O)N2CCc3ccccc3C2)cc1` [Example 67, N-(4-{[3-(phenylsulfonyl)propanoyl]amino}phenyl)-3,4-dihydroisoquinoline-2(1H)-carboxamide], for which the half-maximal inhibitory concentration (IC50) turned out to be 16.7 nM.

Values taken from patent US20120122924A1, “NAMPT INHIBITORS” (ABBOTT LABORATORIES, priority 2010, published 2012).
